According to patent US4798807A, “Monoclonal antibodies and method for detecting dioxins and dibenzofurans” (priority 1986, dated 1989):

target: monoclonal antibody DD-4; test: Competition ELISA with monoclonal antibody DD-4; assay type: binding, BALB/c mice; conditions: competitor vs monoclonal antibody DD-4; plate coated with A-triCDD-RSA
Protocol: (§1) In this case the hybridomas were then screened for their ability to distinguish A-triCDD-BSA and A-triCDD-RSA from BSA and RSA. On the basis of this initial screen about 25 stable, antibody-producing colonies were isolated, subcloned, and frozen. The remaining clones were again screened for their abilities to recognize free TCDD in suspension. Experimentally, on the order of 10-100 nanograms of TCDD in hexane was dried, 0.5 ml of saline with BSA (1 mg/ml) was added and sonificated for 2 hrs. […] Identical procedures were followed for other dioxin isomers. A dilution series in microtiter plate wells was then made with the suspended TCDD, antibody adde, and the competition ELISA completed. Competition ELISA test procedures are discussed in detail in the following reference: Butt, W. R. (1984) "Practical Immunoassay: The State of the Art", Marcel Dekker, Inc., N.Y., N.Y.
(§2) A large part of the success that we have had in characterizing the binding specificities of our monoclonal antibodies comes from having developed a reliable competition ELISA protocol. Our preferred assay starts from stock solutions at 10 ppm in hexane of the various compounds listed in Table I. 10 μl of hexane solution is aliquoted into a small vial, evaporated under a stream of nitrogen gas, and 500 μl of a 1 mg/ml solution of BSA in phosphate buffered saline with 0.1% BSA is added. The vial is capped and placed in an ultrasonic cleaning waterbath for two hours. Two hours of sonification gives a more reproducible assay than does an hour. During the sonification, the hexane appears to evaporate completely, and one is left with an aqueous solution containing the dioxin. Microtiter plates coated with A-triCDD-RSA are blocked with a three percent solution of ovalbumin and a two-fold dilution series of sonificated dioxin-BSA is then made, covering the range 100 ppb-0.1 ppb. In each well of the plate 100 μl of the sonificated dioxin-BSA solution is mixed with n equal volume of antibody. The antibody partitions between the dioxin adsorbed to the BSA, and the A-tri-CDD-RSA on the plate.
(§3) A-TriCDD-RSA was adsorbed onto the surface of the wells of a microtiter plate. The various competitors listed were suspended in saline containing bovine serum albumin (BSA). These solutions were made by sonificating 10 μl of dioxin solution in hexane with 500 μl of saline-BSA. A dilution series of these dioxin-BSA solutions was then made covering the range of 100-0.2 ppb, and placed in the microtiter plate wells. An equal volume of DD-1 monoclonal antibody was then added, and allowed to react for 1 hour. Tne antibody binds either to the A-TriCDD-RSA on the plate or the dioxin in solution. After the hour, the solution phase is removed, the plate washed, and it is reincubated for an hour with peroxidase-conjugated goat-anti-mouse-immunoglobulins. A second washing is then done, and substrate (ABTS) added to the peroxidase. The enzyme-antibody conjugate and substrate function as a "developer", allowing the visualization of the DD-1 bound to the A-triCDD-RSA on the plate. Results are then expressed as a fraction of the response in wells with no competitor. […] At about 20 ppb of 2,3,7,8-TCDD the relative ELISA response is half of control, meaning that half the DD-1 antibody bound to the solution phase dioxin and half bound to the A-triCDD-RSA on the plate. For 1,2,3,7(8)-TCDD, 50% inhibition occurs at about 4 ppb, indicating the DD-1 prefers 1,2,3,7(8)-TCDD to 2,3,7,8-TCDD.
(§4) The FIGURE and Table II show representative competition data using several chlorinated compounds as competitors. From such data, one can determine the concentration required to inhibit antibody binding by 50% (I50). Table II lists the I50 for all compounds tested with the antibodies. In reporting these values, factors of two are about the limit of significance. […] The binding specificities of these antibodies are highly desirable, since they prefer the most toxic of the dioxin and dibenzofuran isomers.

| SMILES | I50 (inhibits antibody binding by 50%) [ng] |
| --- | --- |
| Clc1ccc(Cl)c(-c2c(Cl)c(Cl)c(Cl)c(Cl)c2Cl)c1 [2,2',3,4,5,5',6-Hepta-CBP] | > 200 |
| O=S1OCC2C(CO1)C1(Cl)C(Cl)=C(Cl)C2(Cl)C1(Cl)Cl (stereo not drawn) [Endosulfan] | > 2000 |
| Brc1cc2c(cc1Br)Oc1cc(Br)c(Br)cc1O2 [2,3,7,8-tetra-Bromo-DD] | 1 |
| Clc1ccc(-c2ccc(Cl)c(Cl)c2)cc1Cl [3,3',4,4'-TCBP] | > 200 |
| Clc1cc(-c2cc(Cl)c(Cl)c(Cl)c2Cl)c(Cl)c(Cl)c1Cl [2,2',3,3',4,4',5,5'-Octa-CBP] | > 200 |
| Clc1ccc(C(c2ccc(Cl)cc2)C(Cl)(Cl)Cl)cc1 [DDT] | > 2000 |
| Clc1ccc(-c2cc(Cl)c(Cl)c(Cl)c2Cl)c(Cl)c1 [2,2',3,4,4',5-Hexa-CBP] | > 200 |
| Clc1cc2c(cc1Cl)Oc1c(cc(Cl)c(Cl)c1Cl)O2 [1,2,3,7,8-penta-CDD] | 0.02 |
| O=[N+]([O-])c1cc(Cl)cc(Cl)c1O [2,4-Dichloro-6-nitrophenol, 2,4-Dichloro-6-nitro-phenol] | > 2000 |
| Clc1ccccc1-c1cc(Cl)c(Cl)c(Cl)c1Cl [2,2',3,4,5-Penta-CBP] | > 200 |

target: monoclonal antibody DD-5; test: Competition ELISA with monoclonal antibody DD-5; assay type: binding, Biozzi mice; conditions: competitor vs monoclonal antibody DD-5; plate coated with A-triCDD-RSA
Protocol: as §1, §2, §3, §4

| SMILES | I50 (inhibits antibody binding by 50%) [ng] |
| --- | --- |
| Clc1ccc(Cl)c(-c2c(Cl)c(Cl)c(Cl)c(Cl)c2Cl)c1 [2,2',3,4,5,5',6-Hepta-CBP] | > 10 |
| O=S1OCC2C(CO1)C1(Cl)C(Cl)=C(Cl)C2(Cl)C1(Cl)Cl (stereo not drawn) [Endosulfan] | > 2000 |
| Clc1ccc(-c2ccc(Cl)c(Cl)c2)cc1Cl [3,3',4,4'-TCBP] | > 10 |
| Clc1cc(-c2cc(Cl)c(Cl)c(Cl)c2Cl)c(Cl)c(Cl)c1Cl [2,2',3,3',4,4',5,5'-Octa-CBP] | > 10 |
| Clc1ccc(C(c2ccc(Cl)cc2)C(Cl)(Cl)Cl)cc1 [DDT] | > 2000 |
| Clc1ccc(-c2cc(Cl)c(Cl)c(Cl)c2Cl)c(Cl)c1 [2,2',3,4,4',5-Hexa-CBP] | > 10 |
| O=[N+]([O-])c1cc(Cl)cc(Cl)c1O [2,4-Dichloro-6-nitrophenol, 2,4-Dichloro-6-nitro-phenol] | > 2000 |
| Clc1ccccc1-c1cc(Cl)c(Cl)c(Cl)c1Cl [2,2',3,4,5-Penta-CBP] | > 10 |

target: monoclonal antibody DD-1; test: Competition ELISA with monoclonal antibody DD-1; assay type: binding, Biozzi mice; conditions: competitor vs monoclonal antibody DD-1; plate coated with A-triCDD-RSA
Protocol: as §1, §2, §3, §4

| SMILES | I50 (inhibits antibody binding by 50%) [ng] |
| --- | --- |
| Clc1ccc(Cl)c(-c2c(Cl)c(Cl)c(Cl)c(Cl)c2Cl)c1 [2,2',3,4,5,5',6-Hepta-CBP] | > 200 |
| O=S1OCC2C(CO1)C1(Cl)C(Cl)=C(Cl)C2(Cl)C1(Cl)Cl (stereo not drawn) [Endosulfan] | > 2000 |
| Brc1cc2c(cc1Br)Oc1cc(Br)c(Br)cc1O2 [2,3,7,8-tetra-Bromo-DD] | 0.05 |
| Clc1ccc(-c2ccc(Cl)c(Cl)c2)cc1Cl [3,3',4,4'-TCBP] | > 200 |
| Clc1cc(-c2cc(Cl)c(Cl)c(Cl)c2Cl)c(Cl)c(Cl)c1Cl [2,2',3,3',4,4',5,5'-Octa-CBP] | > 200 |
| Clc1ccc(C(c2ccc(Cl)cc2)C(Cl)(Cl)Cl)cc1 [DDT] | > 2000 |
| Clc1ccc(-c2cc(Cl)c(Cl)c(Cl)c2Cl)c(Cl)c1 [2,2',3,4,4',5-Hexa-CBP] | > 200 |
| Clc1cc2c(cc1Cl)Oc1c(cc(Cl)c(Cl)c1Cl)O2 [1,2,3,7,8-penta-CDD] | 0.2 |
| O=[N+]([O-])c1cc(Cl)cc(Cl)c1O [2,4-Dichloro-6-nitrophenol, 2,4-Dichloro-6-nitro-phenol] | > 2000 |
| Clc1ccccc1-c1cc(Cl)c(Cl)c(Cl)c1Cl [2,2',3,4,5-Penta-CBP] | > 200 |

target: monoclonal antibody DD-6; test: Competition ELISA with monoclonal antibody DD-6; assay type: binding, Biozzi mice; conditions: competitor vs monoclonal antibody DD-6; plate coated with A-triCDD-RSA
Protocol: as §1, §2, §3, §4

| SMILES | I50 (inhibits antibody binding by 50%) [ng] |
| --- | --- |
| Clc1ccc(Cl)c(-c2c(Cl)c(Cl)c(Cl)c(Cl)c2Cl)c1 [2,2',3,4,5,5',6-Hepta-CBP] | > 200 |
| O=S1OCC2C(CO1)C1(Cl)C(Cl)=C(Cl)C2(Cl)C1(Cl)Cl (stereo not drawn) [Endosulfan] | > 2000 |
| Brc1cc2c(cc1Br)Oc1cc(Br)c(Br)cc1O2 [2,3,7,8-tetra-Bromo-DD] | > 2 |
| Clc1ccc(-c2ccc(Cl)c(Cl)c2)cc1Cl [3,3',4,4'-TCBP] | 100 |
| Clc1cc(-c2cc(Cl)c(Cl)c(Cl)c2Cl)c(Cl)c(Cl)c1Cl [2,2',3,3',4,4',5,5'-Octa-CBP] | > 200 |
| Clc1ccc(C(c2ccc(Cl)cc2)C(Cl)(Cl)Cl)cc1 [DDT] | > 2000 |
| Clc1ccc(-c2cc(Cl)c(Cl)c(Cl)c2Cl)c(Cl)c1 [2,2',3,4,4',5-Hexa-CBP] | > 200 |
| Clc1cc2c(cc1Cl)Oc1c(cc(Cl)c(Cl)c1Cl)O2 [1,2,3,7,8-penta-CDD] | > 0.004 |
| O=[N+]([O-])c1cc(Cl)cc(Cl)c1O [2,4-Dichloro-6-nitrophenol, 2,4-Dichloro-6-nitro-phenol] | > 2000 |
| Clc1ccccc1-c1cc(Cl)c(Cl)c(Cl)c1Cl [2,2',3,4,5-Penta-CBP] | > 200 |

target: monoclonal antibody DD-3; test: Competition ELISA with monoclonal antibody DD-3; assay type: binding, BALB/c mice; conditions: competitor vs monoclonal antibody DD-3; plate coated with A-triCDD-RSA
Protocol: as §1, §2, §3, §4

| SMILES | I50 (inhibits antibody binding by 50%) [ng] |
| --- | --- |
| Clc1ccc(Cl)c(-c2c(Cl)c(Cl)c(Cl)c(Cl)c2Cl)c1 [2,2',3,4,5,5',6-Hepta-CBP] | > 200 |
| O=S1OCC2C(CO1)C1(Cl)C(Cl)=C(Cl)C2(Cl)C1(Cl)Cl (stereo not drawn) [Endosulfan] | > 2000 |
| Brc1cc2c(cc1Br)Oc1cc(Br)c(Br)cc1O2 [2,3,7,8-tetra-Bromo-DD] | 1 |
| Clc1ccc(-c2ccc(Cl)c(Cl)c2)cc1Cl [3,3',4,4'-TCBP] | > 200 |
| Clc1cc(-c2cc(Cl)c(Cl)c(Cl)c2Cl)c(Cl)c(Cl)c1Cl [2,2',3,3',4,4',5,5'-Octa-CBP] | > 200 |
| Clc1ccc(C(c2ccc(Cl)cc2)C(Cl)(Cl)Cl)cc1 [DDT] | > 2000 |
| Clc1ccc(-c2cc(Cl)c(Cl)c(Cl)c2Cl)c(Cl)c1 [2,2',3,4,4',5-Hexa-CBP] | > 200 |
| Clc1cc2c(cc1Cl)Oc1c(cc(Cl)c(Cl)c1Cl)O2 [1,2,3,7,8-penta-CDD] | 0.15 |
| O=[N+]([O-])c1cc(Cl)cc(Cl)c1O [2,4-Dichloro-6-nitrophenol, 2,4-Dichloro-6-nitro-phenol] | > 2000 |
| Clc1ccccc1-c1cc(Cl)c(Cl)c(Cl)c1Cl [2,2',3,4,5-Penta-CBP] | > 200 |
